{"source": "PubChem BioAssay AID1963422", "about": "(Molecular Pharmacology Branch, DTP, NCI, 2024);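 further: compound exposure lasted 7 days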;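 on viability, T/C: 100% = DMSO vehicle control wells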", "system": "463943-066-T-J2-PDC complex spheroid growth", "assay": "Anticancer human tumor 463943-066-T-J2-PDC patient-derived colon adenocarcinoma cell line growth inhibition [Asc]", "conditions": "for IC50: curve of first compound; for viability, T/C: stronger effect = lower value", "in_short": "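Complex solid-tumor spheroids incorporating human endothelial and mesenchymal stem cells received single agents or combinations over half-log dilution ranges anchored to clinical Cmax.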", "data": [{"smiles": "NC(=O)C(=Cn1cnc(-c2cc(C(F)(F)F)cc(C(F)(F)F)c2)n1)c1cncnc1", "note": "+ CCN1C(C(=O)NC23CCC(C(=O)O)(CC2)CC3)C(c2cccc(Cl)c2F)C2(C(=O)Nc3cc(Cl)ccc32)C12CCCCC2", "values": [{"measurement": "IC50", "setting": "second compound 0.00949 µM", "result": "> 0.3", "unit": "µM"}, {"measurement": "IC50", "setting": "second compound 0.03 µM", "result": "> 0.3", "unit": "µM"}, {"measurement": "IC50", "setting": "second compound 0.0949 µM", "result": "> 0.3", "unit": "µM"}, {"measurement": "IC50", "setting": "second compound 0.3 µM", "result": 0.156, "unit": "µM"}, {"measurement": "IC50", "setting": "second compound 0.949 µM", "result": 0.0326, "unit": "µM"}, {"measurement": "IC50", "setting": "second compound 3 µM", "result": 0.0151, "unit": "µM"}, {"measurement": "viability, T/C", "setting": "second compound 0.00949 µM, first compound 0.000949 µM", "result": 94.2, "unit": "%"}, {"measurement": "viability, T/C", "setting": "second compound 0.00949 µM, first compound 0.003 µM", "result": 91.3, "unit": "%"}, {"measurement": "viability, T/C", "setting": "second compound 0.00949 µM, first compound 0.00949 µM", "result": 82.5, "unit": "%"}, {"measurement": "viability, T/C", "setting": "second compound 0.00949 µM, first compound 0.03 µM", "result": 87.4, "unit": "%"}, {"measurement": "viability, T/C", "setting": "second compound 0.00949 µM, first compound 0.0949 µM", "result": 81, "unit": "%"}, {"measurement": "viability, T/C", "setting": "second compound 0.00949 µM, first compound 0.3 µM", "result": 63.7, "unit": "%"}, {"measurement": "viability, T/C", "setting": "second compound 0.03 µM, first compound 0.000949 µM", "result": 99.5, "unit": "%"}, {"measurement": "viability, T/C", "setting": "second compound 0.03 µM, first compound 0.003 µM", "result": 92.6, "unit": "%"}, {"measurement": "viability, T/C", "setting": "second compound 0.03 µM, first compound 0.00949 µM", "result": 81, "unit": "%"}, {"measurement": "viability, T/C", "setting": "second compound 0.03 µM, first compound 0.03 µM", "result": 84.9, "unit": "%"}, {"measurement": "viability, T/C", "setting": "second compound 0.03 µM, first compound 0.0949 µM", "result": 78.8, "unit": "%"}, {"measurement": "viability, T/C", "setting": "second compound 0.03 µM, first compound 0.3 µM", "result": 62.5, "unit": "%"}, {"measurement": "viability, T/C", "setting": "second compound 0.0949 µM, first compound 0.000949 µM", "result": 86.8, "unit": "%"}, {"measurement": "viability, T/C", "setting": "second compound 0.0949 µM, first compound 0.003 µM", "result": 84.9, "unit": "%"}, {"measurement": "viability, T/C", "setting": "second compound 0.0949 µM, first compound 0.00949 µM", "result": 80.7, "unit": "%"}, {"measurement": "viability, T/C", "setting": "second compound 0.0949 µM, first compound 0.03 µM", "result": 78.6, "unit": "%"}, {"measurement": "viability, T/C", "setting": "second compound 0.0949 µM, first compound 0.0949 µM", "result": 70.6, "unit": "%"}, {"measurement": "viability, T/C", "setting": "second compound 0.0949 µM, first compound 0.3 µM", "result": 54.5, "unit": "%"}, {"measurement": "viability, T/C", "setting": "second compound 0.3 µM, first compound 0.000949 µM", "result": 78.7, "unit": "%"}, {"measurement": "viability, T/C", "setting": "second compound 0.3 µM, first compound 0.003 µM", "result": 75.4, "unit": "%"}, {"measurement": "viability, T/C", "setting": "second compound 0.3 µM, first compound 0.00949 µM", "result": 68.7, "unit": "%"}, {"measurement": "viability, T/C", "setting": "second compound 0.3 µM, first compound 0.03 µM", "result": 67.5, "unit": "%"}, {"measurement": "viability, T/C", "setting": "second compound 0.3 µM, first compound 0.0949 µM", "result": 51.2, "unit": "%"}, {"measurement": "viability, T/C", "setting": "second compound 0.3 µM, first compound 0.3 µM", "result": 44.5, "unit": "%"}, {"measurement": "viability, T/C", "setting": "second compound 0.949 µM, first compound 0.000949 µM", "result": 68.1, "unit": "%"}, {"measurement": "viability, T/C", "setting": "second compound 0.949 µM, first compound 0.003 µM", "result": 67.3, "unit": "%"}, {"measurement": "viability, T/C", "setting": "second compound 0.949 µM, first compound 0.00949 µM", "result": 61, "unit": "%"}, {"measurement": "viability, T/C", "setting": "second compound 0.949 µM, first compound 0.03 µM", "result": 52.1, "unit": "%"}, {"measurement": "viability, T/C", "setting": "second compound 0.949 µM, first compound 0.0949 µM", "result": 37.8, "unit": "%"}, {"measurement": "viability, T/C", "setting": "second compound 0.949 µM, first compound 0.3 µM", "result": 34.8, "unit": "%"}, {"measurement": "viability, T/C", "setting": "second compound 3 µM, first compound 0.000949 µM", "result": 66, "unit": "%"}, {"measurement": "viability, T/C", "setting": "second compound 3 µM, first compound 0.003 µM", "result": 63.6, "unit": "%"}, {"measurement": "viability, T/C", "setting": "second compound 3 µM, first compound 0.00949 µM", "result": 56.9, "unit": "%"}, {"measurement": "viability, T/C", "setting": "second compound 3 µM, first compound 0.03 µM", "result": 40, "unit": "%"}, {"measurement": "viability, T/C", "setting": "second compound 3 µM, first compound 0.0949 µM", "result": 30.4, "unit": "%"}, {"measurement": "viability, T/C", "setting": "second compound 3 µM, first compound 0.3 µM", "result": 29, "unit": "%"}]}]}
